Earlier results, collected in patent US20170037184A1, “VITAMIN E-BASED NANOCARRIERS FOR DRUG DELIVERY AND METHODS OF MAKING AND USING THE SAME” (THE CORPORATION OF MERCER UNIVERSITY, priority 2014, published 2017).

Conditions: ethylenediamine group of DET conjugated to polyasparagine

Compound: NCCNCCN [DET, diethylenetriamine]
- pKa1: 9.5
- pKa2: 6.0
